Experimental data reported in patent US9668479B2, “Modulating germination of Paenibacillus larvae” (THE BOARD OF REGENTS OF THE NEVADA SYSTEM OF HIGHER …, priority 2013, dated 2017).

Key:
P. larvae spores [1] = assay: Growth from P. larvae spores in medium containing 5-chloroindole; assay type: cell-based, Paenibacillus larvae
Procedure: FIGS. 7A-7D are graphs plotting the inhibition activity of 5-chloroindole on P. larvae spores. P. larvae spores were grown in medium containing different concentrations of 5-chloroindole. Growth was monitored over a 24 hour period; plots are shown for 6 hours (FIG. 7A), 12 hours (FIG. 7B), 18 hours (FIG. 7C), and 24 hours (FIG. 7D). Asterisks denote significant differences from the growth of medium control (Analysis of Variance, Log-rank test, p<0.05).
P. larvae spores were grown in medium containing different concentrations of DMSO, complex medium (MYPGP), or 0.5 to 2 mM 5-chloroindole, and cellular growth was monitored over a 24 hour period.

[2] = tested on: honey bee larvae contacted with P. larvae spores; assay: Survival of honey bee larvae fed diet with indole analogs and P. larvae spores; assay type: in vivo
Procedure: First instar honey bee larvae were obtained from two colonies headed by naturally mated queens (Honey Bee Genetics, Vacaville Calif.). Queens were trapped on empty frames within a cage constructed with queen excluder. Worker bees can fit through the excluder but the queen cannot exit the cage. The frame was placed within the brood chamber to stimulate egg laying by the queen overnight. Eggs were incubated in the hive for 4 days to allow newly hatched larvae to be fed by nurse bees. First instar honey bee larvae were brought into the laboratory and stored in a 35° C. 85% relative humidity chamber before grafting.
Sterile six well plates with a well volume of 17.0 ml were filled with 2.5 ml of pre-warmed artificial worker jelly. Honey bee larvae were transferred into each well using the thin tongue made of flexible plastic from a Chinese grafting tool. The plastic grafting tool was decontaminated with 70% ethanol throughout usage. Grafting was performed in the sterile environment of a honey bee laboratory, and honey bee larvae were then transferred to a bacterial spore laboratory for control and spore exposure treatments.
Artificial worker jelly was prepared using a lyophilized royal jelly, D-glucose, D-fructose, yeast extract, and autoclaved double distilled water. Ingredients minus lyophilized royal jelly were dissolved in autoclaved double distilled water. Lyophilized royal jelly was added to this sugar-yeast extract solution and mixed thoroughly with a vortex mixer. Artificial diet was prepared an hour prior to use for larval rearing. To reduce the development of worker-queen hybrids because of nutrition, the composition and amounts of artificial worker jelly were controlled in every larval stage.
Honey bee larvae were incubated in an air tight plastic container placed inside an incubator. The desired relative humidity (95%) and temperature (35° C.) was verified with an iButton data logger (Maxim Integrated; San Jose, Calif.). The appropriate relative humidity was obtained by placing a solution of 20% glycerol by weight. The plastic containers were was decontaminated throughout usage with detergent, 70% ethanol, and treated with an ultraviolet lamp overnight.
Feeding of diets was performed daily in different amounts according to Table 2. The amount of diet consumed by larvae was assumed based on published literature. A micropipette was used to place a food drop next to the mouth of the larvae. Drowning was avoided by maintaining the appropriate humidity and water content of diet. Forty first and second instar larvae were placed into one well of a six well plate. Third instar larvae were transferred individually to 48 well plates filled with fresh food.
Larval survival was determined daily by observing signs of respiration, disease symptoms, and other abnormalities with a stereo microscope. The number of dead larvae was recorded, and surviving larvae were fed fresh food. The start of pupation was indicated by the appearance of uric acid crystals and light yellow excretions in the remaining food.
The larval survival data was analyzed using the LogRank test in SigmaPlot.

P. larvae spores [3] = assay: Inhibition of P. larvae spore germination, IC50 titration of indole analogs (Example 2); assay type: cell-based, Paenibacillus larvae subsp. pulvifaciens strain ATCC 49843; conditions: Paenibacillus larvae; Table 2; saturating uric acid/L-tyrosine concentrations; read-out: IC50
Procedure: After a 15 minute incubation, the spores were treated with 3 mM L-tyrosine-3 mM uric acid. The germination rate was set to 100% for P. larvae spores germinated in the absence of inhibitor. Germination rates for other conditions were divided by the uninhibited maximum germination rate obtained with 3 mM L-tyrosine-3 mM uric acid, and are reported as percent germination. Percent germination was plotted against the inhibitor concentrations.

P. larvae cells = assay: Growth of P. larvae cells in medium containing 5-chloroindole; assay type: cell-based, Paenibacillus larvae; conditions: 1, 1.5 and 2 mM; all time points (6, 12, 18, 24 hours); p<0.05
Procedure: FIGS. 6A-6D are graphs plotting the inhibition activity of 5-chloroindole on P. larvae cells. P. larvae cells were grown in medium containing different concentrations of 5-chloroindole, and cellular growth was monitored over a 24 hour period. Graphs are shown for 6 hours (FIG. 6A), 12 hours (FIG. 6B), 18 hours (FIG. 6C), and 24 hours (FIG. 6D). Asterisks denote significant differences from the growth of medium control (Analysis of Variance, Log-rank test, p<0.05).
5-Chloroindole was then tested in vitro, using P. larvae cells or spores. P. larvae cells were grown in medium containing different concentrations of DMSO, complex medium (MYPGP), or 0.5 to 2 mM 5-chloroindole, and cellular growth was monitored over a 24 hour period.

Clc1ccc2[nH]ccc2c1 [5-chloroindole]
effect on growth from P. larvae spores vs medium control, 6 hours (P. larvae spores [1]; 0.5 to 2 mM, 6 hours): no significant effect
effect on growth from P. larvae spores vs medium control, 18 and 24 hours (P. larvae spores [1]; all concentrations (0.5 to 2 mM), 18 and 24 hours, p<0.05): significantly inhibited
concentration dependence of increase in larval survival ([2]; 0.125 mM to 1 mM in larval diet (wj) plus P. larvae spores, p<0.001): directly correlated to its concentration
ranking of effect on larval survival among analogs ([2]; 0.5 mM in larval diet (wj) plus P. larvae spores): greatest effect
survival of honey bee larvae vs P. larvae spores alone ([2]; 0.5 mM in larval diet (wj) plus P. larvae spores, 7-day development, p<0.002): increased survival
IC50 (P. larvae spores [3]): 30 ± 10 µM
inhibition of P. larvae cell growth vs medium control (P. larvae cells): significantly inhibited
